Experimental data from patent publication US5061791A, “4-bromo-4'-demethylepipodophyllotoxin derivatives” (Warner-Lambert Company, priority 1989, dated 1991).
Where two headings read alike, the source gives them in different places.

Assays:
[1] = system: P388 murine leukemia cell line; assay: In vivo antineoplastic test, P388 leukemia in mice; parameters: species or system murine (male and female CD2Fl mice)
Experimental: (§1) Compounds of the present invention are tested for antineoplastic activity by the following in vitro L1210 and in vivo P388 leukemia protocols:
In Vivo Antineoplastic Test Protocol
The activities of compounds of the present invention are tested against the P388 murine leukemia cell line in vivo. This protocol tests the effectiveness of a given compounds to inhibit the growth of the transplanted P388 murine leukemia cell line in male and female CD2Fl mice. Each test included a group of six or seven mice. The test is described in detail in Cancer Chemotherapy Reports, Part 3, Volume 3, pp 1-85 (1972).
The tumor cell line is transplanted into the test animals by intraperitoneal injection of ascites fluid containing the cell line. […]
A compound is designated "toxic" if, at a given dose, no animal survives after four days following first injection of the test compound. A ratio of survival time for treated animals (T) animals relative to control (C) animals is calculated for each nontoxic dose. A criterion for efficacy is a ratio of (T/C)×100 equal to or greater than 125.

[2] = system: L1210 murine leukemia cell line; assay: In vitro antineoplastic test, L1210 leukemia (MTT, 3 days); type: cell-based; conditions: Mus musculus, read-out: L1210 Leukemia In Vitro Mean IC50
Experimental: as §1
In Vitro Antineoplastic Test Protocol
The activities of compounds of the present invention are tested against the L1210 murine leukemia cell line in vitro.
[…] cells are grown in RPMI 1640 culture medium containing 10% fetal bovine serum and gentamicin (50 micrograms per milliliter). A stock solution of the test compound is prepared in the appropriate solvent and further diluted in culture medium. Sequential twofold dilutions of drug are performed with 50 microliter transfers in 96-well microliter plates followed by the addition of 50 microliters of cell suspension containing 4×10^4 cells per milliliter.
After incubation at 37° C. in a humidified atmosphere of 5% CO2 in air for three days, 10 microliters of MTT [5 milligrams/milliliter 3-(4,5-dimethyl-2-thiazol)-2,5-diphenyltetrazolium bromide]are added to each well and the plates incubated at 37° C. for 3 hours before the addition of 100 microliters of 0.15 N HCl in isopropanol. Absorbance is read within one hour on a Dynatech MR 600 plate reader at 2 test wavelength of 570 nm and a reference wavelength of 630 nm. A microcomputer program converts optical density readings to percent growth and determines IC50 values (the amount of drug required to reduce absorbance to 50% of untreated controls) using nonlinear regression analysis.

[3] = background art; cited from earlier work
[4] = system: tumors, including small-cell carcinoma of the lung, acute leukemia, malignant lymphoma, and testicular cancer; conditions: background art; cited from earlier work
[5] = Mus musculus, P388, ip, 120 h, read-out: P388 Leukemia % T/C (survival time treated/control x 100)

COc1cc([C@@H]2c3cc4c(cc3[C@@H](OCCN(C)CCO)[C@H]3COC(=O)[C@H]23)OCO4)cc(OC)c1O [Example 2]
response vs control in vivo at 0.38 mg/kg [1, 5]: 170%
IC50 ([2]; L1210, 72 h): 103 nM

COc1cc([C@@H]2c3cc4c(cc3[C@@H](OCCN(CCO)CCO)[C@H]3COC(=O)[C@H]23)OCO4)cc(OC)c1O [Example 4]
response vs control in vivo at 1.5 mg/kg [1, 5]: 160%
IC50 ([2]; L1210, 72 h): 336 nM

CCN(CC)CCO[C@@H]1c2cc3c(cc2[C@@H](c2cc(OC)c(O)c(OC)c2)[C@H]2C(=O)OC[C@@H]21)OCO3 [Example 5, [5R-(5α,5aβ,8aα,9β)]-9-[2-(diethylamino)ethoxy]-5,8,8a,9-tetrahydro-5-(4-hydroxy-3,5-dimethoxyphenyl)furo[3',4':6,7]naphtho[2,3-d]-1,3-dioxol-6(5aH)-one]
response vs control in vivo at 3.1 mg/kg [1, 5]: 140%
IC50 ([2]; L1210, 72 h): 198 nM

COc1cc([C@@H]2c3cc4c(cc3[C@@H](S[C@@H]3O[C@@H]5COC(C)O[C@H]5[C@H](O)[C@H]3O)[C@H]3COC(=O)[C@H]23)OCO4)cc(OC)c1O (stereo partly drawn) [Example 11, (5α,5aα,8aα,9β)-9-[(4,6-O-ethylidene-β-D-glucopyranosyl)thio]-5,8,8a,9-tetrahydro-5-(4-hydroxy-3,5-dimethoxyphenyl)furo[3',4':6,7]naphtho[2,3-d]-1,3-dioxol-6(5aH)-one]
response vs control in vivo at 50 mg/kg [1, 5]: 182%
40-day survivors ([1]; P388, 50 mg/kg/inj, intraperitoneal once daily for five days): 3/6
antitumor activity (in words) ([1]; conclusion from the table (L1210 and P388)): highly active
IC50 ([2]; L1210, 72 h): 305 nM

COc1cc([C@@H]2c3cc4c(cc3[C@@H](SCC(O)CO)[C@H]3COC(=O)[C@H]23)OCO4)cc(OC)c1O (stereo partly drawn) [Example 10]
response vs control in vivo at 12.5 mg/kg [1, 5]: 114%
IC50 ([2]; 72 h, L1210 cells, 3 days at 37° C., MTT): 767 nM

COc1cc([C@@H]2c3cc4c(cc3[C@@H](O[C@@H]3O[C@@H]5CO[C@@H](c6cccs6)O[C@H]5[C@H](O)[C@H]3O)[C@H]3COC(=O)[C@H]23)OCO4)cc(OC)c1O [teniposide]
toxicity (in words) [3]: reduced toxicity
antineoplastic activity (in words) [4]: exhibited antineoplastic activity against certain tumors, including small-cell carcinoma of the lung, acute leukemia, malignant lymphoma, and testicular cancer

COc1cc([C@@H]2c3cc4c(cc3[C@@H](OCCN3CCCC3=O)[C@H]3COC(=O)[C@H]23)OCO4)cc(OC)c1O [Example 8, [5S-(5α,5aβ,8aα,9β)]-1-[2-[[5,5a,6,8,8a,9-hexahydro-9-(4-hydroxy-3,5-dimethoxyphenyl)-8-oxofuro-[3',4':6,7]naphtho[2,3-d]-1,3-dioxol-5-yl]oxy]ethyl]-2-pyrrolidinone]
response vs control in vivo at 100 mg/kg [1, 5]: 167%
IC50 ([2]; L1210, 72 h): 500 nM

CCN(CC)CCCO[C@@H]1c2cc3c(cc2[C@@H](c2cc(OC)c(O)c(OC)c2)[C@H]2C(=O)OC[C@@H]21)OCO3 [Example 6, [5R-(5α,5aβ,8aα,9β)]-9-3-[(diethylamino)propoxy]-5,8,8a,9-tetrahydro-5-(4-hydroxy-3,5-dimethoxyphenyl)furo[3',4':6,7]naphtho[2,3-d]-1,3-dioxol-6(5aH)-one]
response vs control in vivo at 2 mg/kg [1, 5]: 137%
IC50 ([2]; L1210, 72 h): 250 nM

COc1cc([C@@H]2c3cc4c(cc3[C@@H](SCCN3CCOCC3)[C@H]3COC(=O)[C@H]23)OCO4)cc(OC)c1O [Example 9, [5R-(5α,5aβ,8aα,9β)]-5,8,8a,9-tetrahydro-5-(4-hydroxy-3,5-methoxyphenyl)-9-[[2-(4-morpholinyl)ethyl]thio]furo[3',4':6,7]naphtho[2,3-d]1,3-dioxol-6(5aH)-one]
response vs control in vivo at 50 mg/kg [1, 5]: 127%
IC50 ([2]; L1210, 72 h): 1390 nM

CCN(CC)CCOCCO[C@@H]1c2cc3c(cc2[C@@H](c2cc(OC)c(O)c(OC)c2)[C@H]2C(=O)OC[C@@H]21)OCO3 [Example 7, [5R-(5α,5aβ,8aα,9β)]-9-[2-[2-(diethyl-amino)ethoxy]ethoxy]-5,8,8a,9-tetrahydro-5-(4-hydroxy-3,5-dimethoxyphenyl)furo[3',4':6,7]naphtho[2,3-d]-1,3-dioxol-6(5aH)-one]
response vs control in vivo at 50 mg/kg [1, 5]: 170%
IC50 ([2]; L1210, 72 h): 253 nM

COc1cc([C@@H]2c3cc4c(cc3[C@@H](OCCN3CCOCC3)[C@H]3COC(=O)[C@H]23)OCO4)cc(OC)c1O [Example 3, [5R-(5α,5aβ,8aα,9β)]-5,8,8a,9-tetrahydro-5-(4-hydroxy-3,5-dimethoxyphenyl)-9-[2-(4morpholinyl)ethoxy]furo[3',4':6,7]naphtho[2,3-d]-1,3-dioxol-6(5aH)-one]
response vs control in vivo at 3.1 mg/kg [1, 5]: 179%
IC50 ([2]; L1210, 72 h): 235 nM

COc1cc([C@@H]2c3cc4c(cc3[C@H](O)[C@H]3COC(=O)[C@H]23)OCO4)cc(OC)c1OC [podophyllotoxin]
toxicity (in words) [3]: extremely toxic
antineoplastic activity (in words) [4]: well documented

COc1cc([C@@H]2c3cc4c(cc3[C@@H](O[C@@H]3O[C@@H]5CO[C@@H](C)O[C@H]5[C@H](O)[C@H]3O)[C@H]3COC(=O)[C@H]23)OCO4)cc(OC)c1O [Etoposide, etoposide, reference compound]
toxicity (in words) [3]: reduced toxicity
response vs control in vivo at 40 mg/kg ([1]; Mus musculus, P388, read-out: P388 Leukemia % T/C (survival time treated/control x 100)): 295%
60-days survivors ([1]; P388, 40 mg/kg/inj, once daily on Days 1, 5, and 9): 4/10
antineoplastic activity (in words) [4]: exhibited antineoplastic activity against certain tumors, including small-cell carcinoma of the lung, acute leukemia, malignant lymphoma, and testicular cancer
